Test results from patent US5589467A, “2,5',N6-trisubstituted adenosine derivatives” (Novo Nordisk A/S, priority 1993, dated 1996).
pKi: −log10 of the molar value. Read-outs that look alike come from different tables or passages of the source.

Tests used:
adenosine A2 receptor = target: T1, adenosine A2 receptor (Rattus norvegicus, UniProt P30543); assay: in vitro binding to adenosine A2 receptor ([3H]-CGS 21680)
T1 construct: from tissue
Source text: (§1) Evaluation of in vitro binding to adenosine A1 and A2 receptors.
(§2) The methods both for the above in vitro examination of the compounds and the method used for DMCM-induced seizures in vivo are summarized in the European Journal of Pharmacology, 1993, 224, 221-228.

[1] = DMCM-induced seizures in vivo; conditions: read-out: DMCM-ind. seizures (ED50, mg/kg)
Source text: as §2

adenosine A1 receptor = target: T2, adenosine A1 receptor (Rattus norvegicus, UniProt P25099); assay: in vitro binding to adenosine A1 receptor ([3H]-R-PIA); conditions: for pKi: radioligand [3H]-R-PIA; for Ratio A2/A1: ratio of A2 to A1 receptor binding Ki
T2 construct: from tissue
T2 sequence (P25099 1-326): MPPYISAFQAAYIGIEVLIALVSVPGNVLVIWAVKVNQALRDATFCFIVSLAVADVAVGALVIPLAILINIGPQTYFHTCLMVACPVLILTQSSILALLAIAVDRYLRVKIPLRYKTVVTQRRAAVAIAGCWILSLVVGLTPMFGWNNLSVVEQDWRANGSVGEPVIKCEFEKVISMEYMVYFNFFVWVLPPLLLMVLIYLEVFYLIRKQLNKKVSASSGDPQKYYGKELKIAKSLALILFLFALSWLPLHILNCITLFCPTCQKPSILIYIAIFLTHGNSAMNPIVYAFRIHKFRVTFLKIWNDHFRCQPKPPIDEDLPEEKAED
Source text: as §1, §2

A1 receptor = conditions: literature, qualitative; cited from earlier work
[2] = radioligand [3H]-CGS 21680, read-out: A2 Receptor Binding (Ki)
[3] = ED50, DMCM-induced seizures in vivo

T1 sequence (P30543 whole entry): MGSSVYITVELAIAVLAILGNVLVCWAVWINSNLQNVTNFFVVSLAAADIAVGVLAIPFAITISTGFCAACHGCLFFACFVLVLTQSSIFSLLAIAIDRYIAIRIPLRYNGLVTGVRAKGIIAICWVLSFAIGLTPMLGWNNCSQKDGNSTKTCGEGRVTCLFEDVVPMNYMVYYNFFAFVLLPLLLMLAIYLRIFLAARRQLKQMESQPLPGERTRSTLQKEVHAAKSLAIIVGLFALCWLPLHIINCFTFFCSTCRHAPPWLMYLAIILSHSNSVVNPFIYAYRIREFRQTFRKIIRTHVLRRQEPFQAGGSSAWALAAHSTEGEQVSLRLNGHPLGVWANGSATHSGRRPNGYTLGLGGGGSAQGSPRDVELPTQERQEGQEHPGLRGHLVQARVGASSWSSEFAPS

pKi (adenosine A1 receptor)	Ratio A2/A1 (adenosine A1 receptor)	pKi (adenosine A2 receptor; [2])	Compound	pKi (adenosine A2 receptor)	ED50 [1] [mg/kg]	ED50 [1, 3] [mg/kg]	selectivity for the A1 receptor over the A2 receptor (in words) (A1 receptor)
8.19	428	5.56	O[C@@H]1[C@H](O)[C@@H](CCl)O[C@H]1n1cnc2c(NN3CCCCC3)nc(Cl)nc21 [Example 1, 2,5'-Dichloro-5'-deoxy-N-(1-piperidinyl)adenosine]	–	–	0.4	–
7.96	600	5.18	CN(C)Nc1nc(Cl)nc2c1ncn2[C@@H]1O[C@H](CCl)[C@@H](O)[C@H]1O [Example 11, 2,5'-Dichloro-5'-deoxy-N-(dimethylamino)adenosine]	–	–	4.7	–
8.28	457	5.62	O[C@@H]1[C@H](O)[C@@H](CF)O[C@H]1n1cnc2c(NN3CCCCC3)nc(Cl)nc21 [Example 18, 2-Chloro-5'-deoxy-5'-fluoro-N-(1-piperidinyl)adenosine]	–	–	1	–
7.13	63	5.33	CONc1nc(Cl)nc2c1ncn2[C@@H]1O[C@H](CCl)[C@@H](O)[C@H]1O [Example 12, 2,5'-Dichloro-5'-deoxy-N-methoxyadenosine]	–	–	6.1	–

More lines, now with the values behind:

Compound	pKi (adenosine A1 receptor)	Ratio A2/A1 (adenosine A1 receptor)	pKi (adenosine A2 receptor; [2])	pKi (adenosine A2 receptor)	ED50 [1] [mg/kg]	ED50 [1, 3] [mg/kg]	selectivity for the A1 receptor over the A2 receptor (in words) (A1 receptor)
OC[C@H]1O[C@@H](n2cnc3c(NC4CCCC4)ncnc32)[C@H](O)[C@@H]1O [CPA, N-(cyclopentyl)adenosine, reference compound]	–	–	–	6.72	0.2	–	–
OC[C@H]1O[C@@H](n2cnc3c(NC4CCCC4)nc(Cl)nc32)[C@H](O)[C@@H]1O [CCPA, 2-chloro-N-cyclopentyladenosine]	–	–	–	–	–	–	most selective for the A1 receptor over the A2 receptor
C[C@H](Cc1ccccc1)Nc1ncnc2c1ncn2[C@@H]1O[C@H](CO)[C@@H](O)[C@H]1O [R-PIA, (R)-N-(1-phenyl-2-propyl)adenosine, reference compound]	–	–	–	–	0.5	–	–
